Data: ChEMBL document CHEMBL1155119, “Identification of novel inhibitors of methionyl-tRNA synthetase (MetRS) by virtual screening” (Bioorg Med Chem Lett, 2008)

Experiments:
[1] = Inhibition of Staphylococcus aureus MetRS assessed as decrease in […] incorporation by SPA
Staphylococcus aureus [2] = assay: Inhibition of Staphylococcus aureus MetRS assessed as decrease in […] incorporation at 100 uM by SPA
Staphylococcus aureus [3] = assay: Inhibition of Staphylococcus aureus MetRS assessed as decrease in […] incorporation at 40 uM by SPA

Compound | IC50 [1] | inhibition (Staphylococcus aureus [2]) | inhibition (Staphylococcus aureus [3])
O=C(CSc1nc2ccccc2n1Cc1ccccc1)N/N=C/c1ccccc1O |  | 76% | 52%
COc1ccc(O)c(/C=N/NC(=O)CCC(=O)Nc2ccc(Br)cc2)c1 | 41.7 µM | 72% | 
COc1ccc(O)c(/C=N/NC(=O)CNC(=O)c2ccc(Cl)cc2)c1 |  | 91% | 35%
O=C(NC(C(=O)N/N=C/c1ccccc1O)c1n[nH]c(=O)c2ccccc12)c1ccccc1 (configuration not stated) | 35.6 µM | 52% | 
Cc1cc(Cl)ccc1NC(=O)CCC(=O)N/N=C/c1ccccc1O | 94.9 µM | 91% | 
Cc1cccc(C(=O)Nc2nnc(CC(=O)N/N=C/c3ccc(O)cc3O)s2)c1 | 46.3 µM | 84% | 
O=C(N/N=C/c1ccc(O)cc1O)c1cc(-c2ccccc2)nc2ccccc12 | 46.5 µM | 87% | 
O=C(Nc1cc(Cl)ccc1O)c1cnn2c1NC(c1ccc(Br)cc1)CC2C(F)(F)F (configuration not stated) |  | 47% | 
Cc1ccc(S(=O)(=O)N2CCC(C(=O)N/N=C/c3ccccc3O)CC2)cc1 | 40.8 µM | 61% | 
O=C(Cn1nnc(-c2ccccc2)n1)N/N=C/c1ccc(O)cc1O |  | 45% | 
O=C(CSc1nc2ccccc2n1Cc1ccc(Cl)cc1)N/N=C/c1ccccc1O | 56 µM | 82% | 
O=C(CSc1ccc2ccccc2n1)N/N=C/c1ccccc1O |  | 47% | 
O=C(/N=N/c1nc(Nc2ccccc2)nc(N2CCOCC2)n1)Nc1ccc(Cl)cc1 |  | 81% | 34%
S=C(Nc1ccccc1)Nc1nc2ccccc2n1CCOc1ccccc1Cl | 25.3 µM | 66% | 
S=C(Nc1ccccc1)Nc1nc2ccccc2n1CCOc1ccc(Cl)cc1 | 86.8 µM | 67% | 
O=C(CNC(=O)c1ccc(Cl)cc1)N/N=C/c1c(O)ccc2ccccc12 | 26.6 µM | 80% | 

Further compounds by falling IC50 [1], results first:

IC50 [1] | inhibition (Staphylococcus aureus [2]) | inhibition (Staphylococcus aureus [3]) | Compound
23.6 µM | 77% |  | O=C(Nc1ccccc1C(=O)N/N=C/c1ccccc1O)c1ccc(Cl)cc1
11.5 µM | 92% |  | O=C(Nc1ccccc1O)c1cc(C(=O)Nc2ccccc2O)cc(N2C(=O)c3ccccc3C2=O)c1
8.3 µM | 55% |  | O=C(Nc1cccc(O)c1)c1cnn2c1NC(c1ccc(Br)cc1)CC2C(F)(F)F (configuration not stated)
6.3 µM | 80% |  | O=C(Nc1cccc(Cl)c1)Nc1sc2c(c1-c1nc3ccccc3s1)CCCC2
5.7 µM | 83% |  | O=C(Nc1cccc(O)c1)c1cnn2c1NC(c1cccs1)CC2C(F)(F)F (configuration not stated)
4.8 µM | 86% |  | O=C(CCCOc1ccc(Cl)cc1Cl)N/N=C/c1ccccc1O
0.57 µM |  |  | Nc1nn(CCO)c2cc(-c3ccc(Cl)cc3Cl)ccc12
0.21 µM |  |  | O=C(NCc1nc2ccccc2[nH]1)[C@@H]1CC(O)CN1Cc1ccc(Cl)cc1Cl (some centres not stated)
0.13 µM |  |  | Clc1ccc(-c2ccc(-c3cc(-c4nnn[nH]4)nn3-c3cccnc3)cc2)c(Cl)c1
0.07 µM |  |  | NC(=O)[C@H](Cc1ccc(O)cc1)NC(=O)[C@@H]1CCN1/C=C1\N=C(c2ccc(Cl)cc2Cl)OC1=O
0.02 µM |  |  | O=C(O)c1ccc(OCc2ccc(Cl)cc2Cl)c(OCc2nc3ccccc3[nH]2)c1
0.008 µM |  |  | O=c1cc(NCCCNC2CCOc3c(Br)cc(Br)cc32)[nH]c2ccccc12 (configuration not stated)
